System: BT-474
Assay: normalised response (% of control), CellTiter-Glo; higher = more viable cells (100 = DMSO, 0 = benzethonium chloride kill control)
Settings: incubation time: 72 h
Summary of the method: (§1)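 The table gives the normalised signal for a single concentration in each entry. Breast cancer cell lines were seeded (20 µl suspension) into 384-well plates holding compound at 5 concentrations in 10-fold steps over a compound-specific 10,000-fold range and incubated 72 h, then read for CellTox Green fluorescence (485/520 nm) and CellTiter-Glo luminescence. Normalisation on each plate used 0.1 % DMSO (100) and a positive kill control (0).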

Row | SMILES | normalised response
1 | CCCS(=O)(=O)Nc1ccc(F)c(C(=O)c2c[nH]c3ncc(-c4ccc(Cl)cc4)cc23)c1F [Vemurafenib] (1000 nM) | 90.8%
2 | O=C(/C=C/c1cccnc1)NCCCCC1CCN(C(=O)c2ccccc2)CC1 [Daporinad] (100 nM) | 28.7%
3 | CCCCC(=O)OCC(=O)[C@]1(O)Cc2c(O)c3c(c(O)c2[C@@H](O[C@H]2C[C@H](NC(=O)C(F)(F)F)[C@H](O)[C@H](C)O2)C1)C(=O)c1c(OC)cccc1C3=O [Valrubicin] (500 nM) | 83.8%
4 | CC1=C(/C=C/C(C)=C/C=C/C(C)=C/C(=O)O)C(C)(C)CCC1 [Tretinoin] (1000 nM) | 97%

System: BT-549
Assay: as above
Settings: incubation time: 72 h
Summary of the method: as §1

Row | SMILES | normalised response
5 | COc1cc([C@@H]2c3cc4c(cc3[C@@H](O[C@@H]3O[C@@H]5CO[C@@H](c6cccs6)O[C@H]5[C@H](O)[C@H]3O)[C@H]3COC(=O)[C@H]23)OCO4)cc(OC)c1O [Teniposide] (1000 nM) | 36.5%
6 | CC(=O)Nc1cccc(-n2c(=O)n(C3CC3)c(=O)c3c(Nc4ccc(I)cc4F)n(C)c(=O)c(C)c32)c1 [Trametinib] (25 nM) | 107%
7 | N#Cc1ccc(C(c2ccc(C#N)cc2)n2cncn2)cc1 [Letrozole] (1000 nM) | 103%
8 | CCCS(=O)(=O)Nc1ccc(F)c(C(=O)c2c[nH]c3ncc(-c4ccc(Cl)cc4)cc23)c1F [Vemurafenib] (1000 nM) | 93.1%
9 | O=C(/C=C/c1cccnc1)NCCCCC1CCN(C(=O)c2ccccc2)CC1 [Daporinad] (100 nM) | 100%
10 | CCCCC(=O)OCC(=O)[C@]1(O)Cc2c(O)c3c(c(O)c2[C@@H](O[C@H]2C[C@H](NC(=O)C(F)(F)F)[C@H](O)[C@H](C)O2)C1)C(=O)c1c(OC)cccc1C3=O [Valrubicin] (500 nM) | 64.1%
11 | CC1=C(/C=C/C(C)=C/C=C/C(C)=C/C(=O)O)C(C)(C)CCC1 [Tretinoin] (1000 nM) | 101%

System: CAL-120
Assay: as above
Settings: incubation time: 72 h
Summary of the method: as §1

Row | SMILES | normalised response
12 | COc1cc([C@@H]2c3cc4c(cc3[C@@H](O[C@@H]3O[C@@H]5CO[C@@H](c6cccs6)O[C@H]5[C@H](O)[C@H]3O)[C@H]3COC(=O)[C@H]23)OCO4)cc(OC)c1O [Teniposide] (1000 nM) | 72.4%
13 | CC(=O)Nc1cccc(-n2c(=O)n(C3CC3)c(=O)c3c(Nc4ccc(I)cc4F)n(C)c(=O)c(C)c32)c1 [Trametinib] (25 nM) | 71.7%
14 | N#Cc1ccc(C(c2ccc(C#N)cc2)n2cncn2)cc1 [Letrozole] (1000 nM) | 99%
15 | CCCS(=O)(=O)Nc1ccc(F)c(C(=O)c2c[nH]c3ncc(-c4ccc(Cl)cc4)cc23)c1F [Vemurafenib] (1000 nM) | 90%
16 | O=C(/C=C/c1cccnc1)NCCCCC1CCN(C(=O)c2ccccc2)CC1 [Daporinad] (100 nM) | 17%
17 | CCCCC(=O)OCC(=O)[C@]1(O)Cc2c(O)c3c(c(O)c2[C@@H](O[C@H]2C[C@H](NC(=O)C(F)(F)F)[C@H](O)[C@H](C)O2)C1)C(=O)c1c(OC)cccc1C3=O [Valrubicin] (500 nM) | 86.9%
18 | CC1=C(/C=C/C(C)=C/C=C/C(C)=C/C(=O)O)C(C)(C)CCC1 [Tretinoin] (1000 nM) | 101%

System: CAL-148
Assay: as above
Settings: incubation time: 72 h
Summary of the method: as §1

Row | SMILES | normalised response
19 | COc1cc([C@@H]2c3cc4c(cc3[C@@H](O[C@@H]3O[C@@H]5CO[C@@H](c6cccs6)O[C@H]5[C@H](O)[C@H]3O)[C@H]3COC(=O)[C@H]23)OCO4)cc(OC)c1O [Teniposide] (1000 nM) | 33.3%
20 | CC(=O)Nc1cccc(-n2c(=O)n(C3CC3)c(=O)c3c(Nc4ccc(I)cc4F)n(C)c(=O)c(C)c32)c1 [Trametinib] (25 nM) | 90.7%
21 | N#Cc1ccc(C(c2ccc(C#N)cc2)n2cncn2)cc1 [Letrozole] (1000 nM) | 94.7%
22 | CCCS(=O)(=O)Nc1ccc(F)c(C(=O)c2c[nH]c3ncc(-c4ccc(Cl)cc4)cc23)c1F [Vemurafenib] (1000 nM) | 86.4%
23 | O=C(/C=C/c1cccnc1)NCCCCC1CCN(C(=O)c2ccccc2)CC1 [Daporinad] (100 nM) | 69%
24 | CCCCC(=O)OCC(=O)[C@]1(O)Cc2c(O)c3c(c(O)c2[C@@H](O[C@H]2C[C@H](NC(=O)C(F)(F)F)[C@H](O)[C@H](C)O2)C1)C(=O)c1c(OC)cccc1C3=O [Valrubicin] (500 nM) | 30.4%
25 | CC1=C(/C=C/C(C)=C/C=C/C(C)=C/C(=O)O)C(C)(C)CCC1 [Tretinoin] (1000 nM) | 78.1%

System: CAL-51
Assay: as above
Settings: incubation time: 72 h
Summary of the method: as §1

Row | SMILES | normalised response
26 | COc1cc([C@@H]2c3cc4c(cc3[C@@H](O[C@@H]3O[C@@H]5CO[C@@H](c6cccs6)O[C@H]5[C@H](O)[C@H]3O)[C@H]3COC(=O)[C@H]23)OCO4)cc(OC)c1O [Teniposide] (1000 nM) | 47.8%
27 | CC(=O)Nc1cccc(-n2c(=O)n(C3CC3)c(=O)c3c(Nc4ccc(I)cc4F)n(C)c(=O)c(C)c32)c1 [Trametinib] (25 nM) | 105%
28 | N#Cc1ccc(C(c2ccc(C#N)cc2)n2cncn2)cc1 [Letrozole] (1000 nM) | 80.8%
29 | CCCS(=O)(=O)Nc1ccc(F)c(C(=O)c2c[nH]c3ncc(-c4ccc(Cl)cc4)cc23)c1F [Vemurafenib] (1000 nM) | 88.6%
30 | O=C(/C=C/c1cccnc1)NCCCCC1CCN(C(=O)c2ccccc2)CC1 [Daporinad] (100 nM) | 102%
31 | CCCCC(=O)OCC(=O)[C@]1(O)Cc2c(O)c3c(c(O)c2[C@@H](O[C@H]2C[C@H](NC(=O)C(F)(F)F)[C@H](O)[C@H](C)O2)C1)C(=O)c1c(OC)cccc1C3=O [Valrubicin] (500 nM) | 50.3%
32 | CC1=C(/C=C/C(C)=C/C=C/C(C)=C/C(=O)O)C(C)(C)CCC1 [Tretinoin] (1000 nM) | 111%

System: CAL-85-1
Assay: as above
Settings: incubation time: 72 h
Summary of the method: as §1

Row | SMILES | normalised response
33 | COc1cc([C@@H]2c3cc4c(cc3[C@@H](O[C@@H]3O[C@@H]5CO[C@@H](c6cccs6)O[C@H]5[C@H](O)[C@H]3O)[C@H]3COC(=O)[C@H]23)OCO4)cc(OC)c1O [Teniposide] (1000 nM) | 55.3%
34 | CC(=O)Nc1cccc(-n2c(=O)n(C3CC3)c(=O)c3c(Nc4ccc(I)cc4F)n(C)c(=O)c(C)c32)c1 [Trametinib] (25 nM) | 68.9%
35 | N#Cc1ccc(C(c2ccc(C#N)cc2)n2cncn2)cc1 [Letrozole] (1000 nM) | 98.8%
36 | CCCS(=O)(=O)Nc1ccc(F)c(C(=O)c2c[nH]c3ncc(-c4ccc(Cl)cc4)cc23)c1F [Vemurafenib] (1000 nM) | 92.3%
37 | O=C(/C=C/c1cccnc1)NCCCCC1CCN(C(=O)c2ccccc2)CC1 [Daporinad] (100 nM) | 16%
38 | CCCCC(=O)OCC(=O)[C@]1(O)Cc2c(O)c3c(c(O)c2[C@@H](O[C@H]2C[C@H](NC(=O)C(F)(F)F)[C@H](O)[C@H](C)O2)C1)C(=O)c1c(OC)cccc1C3=O [Valrubicin] (500 nM) | 80.3%
39 | CC1=C(/C=C/C(C)=C/C=C/C(C)=C/C(=O)O)C(C)(C)CCC1 [Tretinoin] (1000 nM) | 92.2%

System: DU-4475
Assay: as above
Settings: incubation time: 72 h
Summary of the method: as §1

Row | SMILES | normalised response
40 | COc1cc([C@@H]2c3cc4c(cc3[C@@H](O[C@@H]3O[C@@H]5CO[C@@H](c6cccs6)O[C@H]5[C@H](O)[C@H]3O)[C@H]3COC(=O)[C@H]23)OCO4)cc(OC)c1O [Teniposide] (1000 nM) | 17.3%
41 | CC(=O)Nc1cccc(-n2c(=O)n(C3CC3)c(=O)c3c(Nc4ccc(I)cc4F)n(C)c(=O)c(C)c32)c1 [Trametinib] (25 nM) | 0.42%
42 | N#Cc1ccc(C(c2ccc(C#N)cc2)n2cncn2)cc1 [Letrozole] (1000 nM) | 98.8%
43 | CCCS(=O)(=O)Nc1ccc(F)c(C(=O)c2c[nH]c3ncc(-c4ccc(Cl)cc4)cc23)c1F [Vemurafenib] (1000 nM) | 35%
44 | O=C(/C=C/c1cccnc1)NCCCCC1CCN(C(=O)c2ccccc2)CC1 [Daporinad] (100 nM) | 4.65%
45 | CCCCC(=O)OCC(=O)[C@]1(O)Cc2c(O)c3c(c(O)c2[C@@H](O[C@H]2C[C@H](NC(=O)C(F)(F)F)[C@H](O)[C@H](C)O2)C1)C(=O)c1c(OC)cccc1C3=O [Valrubicin] (500 nM) | 52.3%
46 | CC1=C(/C=C/C(C)=C/C=C/C(C)=C/C(=O)O)C(C)(C)CCC1 [Tretinoin] (1000 nM) | 102%

System: HCC1143
Assay: as above
Settings: incubation time: 72 h
Summary of the method: as §1

Row | SMILES | normalised response
47 | COc1cc([C@@H]2c3cc4c(cc3[C@@H](O[C@@H]3O[C@@H]5CO[C@@H](c6cccs6)O[C@H]5[C@H](O)[C@H]3O)[C@H]3COC(=O)[C@H]23)OCO4)cc(OC)c1O [Teniposide] (1000 nM) | 47.8%
48 | CC(=O)Nc1cccc(-n2c(=O)n(C3CC3)c(=O)c3c(Nc4ccc(I)cc4F)n(C)c(=O)c(C)c32)c1 [Trametinib] (25 nM) | 72.5%
49 | N#Cc1ccc(C(c2ccc(C#N)cc2)n2cncn2)cc1 [Letrozole] (1000 nM) | 108%
50 | CCCS(=O)(=O)Nc1ccc(F)c(C(=O)c2c[nH]c3ncc(-c4ccc(Cl)cc4)cc23)c1F [Vemurafenib] (1000 nM) | 95.6%
51 | O=C(/C=C/c1cccnc1)NCCCCC1CCN(C(=O)c2ccccc2)CC1 [Daporinad] (100 nM) | 14.3%
52 | CCCCC(=O)OCC(=O)[C@]1(O)Cc2c(O)c3c(c(O)c2[C@@H](O[C@H]2C[C@H](NC(=O)C(F)(F)F)[C@H](O)[C@H](C)O2)C1)C(=O)c1c(OC)cccc1C3=O [Valrubicin] (500 nM) | 75.5%
53 | CC1=C(/C=C/C(C)=C/C=C/C(C)=C/C(=O)O)C(C)(C)CCC1 [Tretinoin] (1000 nM) | 96.8%

System: HCC1599
Assay: as above
Settings: incubation time: 72 h
Summary of the method: as §1

Row | SMILES | normalised response
54 | COc1cc([C@@H]2c3cc4c(cc3[C@@H](O[C@@H]3O[C@@H]5CO[C@@H](c6cccs6)O[C@H]5[C@H](O)[C@H]3O)[C@H]3COC(=O)[C@H]23)OCO4)cc(OC)c1O [Teniposide] (1000 nM) | 19.6%
55 | CC(=O)Nc1cccc(-n2c(=O)n(C3CC3)c(=O)c3c(Nc4ccc(I)cc4F)n(C)c(=O)c(C)c32)c1 [Trametinib] (25 nM) | 101%
56 | N#Cc1ccc(C(c2ccc(C#N)cc2)n2cncn2)cc1 [Letrozole] (1000 nM) | 104%
57 | CCCS(=O)(=O)Nc1ccc(F)c(C(=O)c2c[nH]c3ncc(-c4ccc(Cl)cc4)cc23)c1F [Vemurafenib] (1000 nM) | 104%
58 | O=C(/C=C/c1cccnc1)NCCCCC1CCN(C(=O)c2ccccc2)CC1 [Daporinad] (100 nM) | 0.54%
59 | CCCCC(=O)OCC(=O)[C@]1(O)Cc2c(O)c3c(c(O)c2[C@@H](O[C@H]2C[C@H](NC(=O)C(F)(F)F)[C@H](O)[C@H](C)O2)C1)C(=O)c1c(OC)cccc1C3=O [Valrubicin] (500 nM) | 102%
60 | CC1=C(/C=C/C(C)=C/C=C/C(C)=C/C(=O)O)C(C)(C)CCC1 [Tretinoin] (1000 nM) | 99.3%

System: HCC1937
Assay: as above
Settings: incubation time: 72 h
Summary of the method: as §1

Row | SMILES | normalised response
61 | COc1cc([C@@H]2c3cc4c(cc3[C@@H](O[C@@H]3O[C@@H]5CO[C@@H](c6cccs6)O[C@H]5[C@H](O)[C@H]3O)[C@H]3COC(=O)[C@H]23)OCO4)cc(OC)c1O [Teniposide] (1000 nM) | 72.4%
62 | CC(=O)Nc1cccc(-n2c(=O)n(C3CC3)c(=O)c3c(Nc4ccc(I)cc4F)n(C)c(=O)c(C)c32)c1 [Trametinib] (25 nM) | 81.3%
63 | N#Cc1ccc(C(c2ccc(C#N)cc2)n2cncn2)cc1 [Letrozole] (1000 nM) | 103%
64 | CCCS(=O)(=O)Nc1ccc(F)c(C(=O)c2c[nH]c3ncc(-c4ccc(Cl)cc4)cc23)c1F [Vemurafenib] (1000 nM) | 97.3%
65 | O=C(/C=C/c1cccnc1)NCCCCC1CCN(C(=O)c2ccccc2)CC1 [Daporinad] (100 nM) | 21.3%
